# According to US20090253634A1, “Methods and Compositions for the Treatment of Gastrointestinal Disorders” (MICROBIA, INC., priority 2005, published 2009):
# pKi: −log10 of the molar value. Like-named read-outs stand apart in the source and are kept apart here. Bridge positions count the residues as written; N and C are the ends. Peptide text beside a SMILES is read from it.
# Experiments:
# [1] = target: T1, GC-C receptors on the cell surface of human colonic cells (T84 cells) (Homo sapiens, UniProt P25092); test: competitive radioligand-binding assay on T84 cells
# T1 construct: 2.5×10^5 T84 cells (0.25 mg protein); host or cells: T84 human colonic cells
# T1 sequence (P25092 24-1073): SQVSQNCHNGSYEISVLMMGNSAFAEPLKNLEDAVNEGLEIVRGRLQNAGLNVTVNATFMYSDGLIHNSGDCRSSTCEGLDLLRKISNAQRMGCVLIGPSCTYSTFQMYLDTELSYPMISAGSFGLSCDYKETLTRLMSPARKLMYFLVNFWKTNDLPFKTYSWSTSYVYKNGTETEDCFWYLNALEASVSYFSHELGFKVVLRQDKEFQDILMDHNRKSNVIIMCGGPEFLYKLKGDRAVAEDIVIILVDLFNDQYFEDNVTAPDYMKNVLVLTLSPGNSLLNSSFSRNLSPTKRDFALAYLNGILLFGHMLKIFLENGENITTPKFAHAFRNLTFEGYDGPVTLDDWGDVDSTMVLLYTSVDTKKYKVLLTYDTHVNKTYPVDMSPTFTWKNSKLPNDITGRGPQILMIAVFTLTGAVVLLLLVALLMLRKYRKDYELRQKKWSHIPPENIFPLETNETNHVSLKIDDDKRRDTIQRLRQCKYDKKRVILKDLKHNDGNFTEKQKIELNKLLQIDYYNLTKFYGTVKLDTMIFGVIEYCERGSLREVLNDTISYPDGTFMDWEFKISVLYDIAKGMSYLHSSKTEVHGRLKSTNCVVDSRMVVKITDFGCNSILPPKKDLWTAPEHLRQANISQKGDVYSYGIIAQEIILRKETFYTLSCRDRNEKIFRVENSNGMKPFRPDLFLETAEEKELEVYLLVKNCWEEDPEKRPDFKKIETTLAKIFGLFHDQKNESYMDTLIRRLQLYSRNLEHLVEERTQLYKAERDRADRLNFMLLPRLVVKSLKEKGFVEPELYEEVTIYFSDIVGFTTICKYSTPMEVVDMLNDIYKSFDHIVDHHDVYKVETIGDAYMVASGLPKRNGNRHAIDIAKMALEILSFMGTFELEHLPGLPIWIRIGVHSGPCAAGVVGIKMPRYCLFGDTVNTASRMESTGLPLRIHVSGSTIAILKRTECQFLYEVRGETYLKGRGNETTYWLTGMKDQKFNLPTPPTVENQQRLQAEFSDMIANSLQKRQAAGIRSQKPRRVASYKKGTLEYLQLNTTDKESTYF
# Experimental: The radiolabeled tracer used in these experiments was ^125I-SEQ ID NO:7. To determine binding constants, competitive inhibition of binding was used. T84 cells were cultured in T-150 plastic flasks in DMEM and Ham's F-12 medium containing 5% fetal bovine serum. Monolayers at 60-70% confluency (approximately 10^7 cells) were collected by gentle scraping followed by centrifugation, and washed twice in 50 mL of phosphate-buffered saline (PBS). The cells were resuspended in 1 mL DMEM containing 20 mM […] (Hepes), pH 7.0 and 0.5% bovine serum albumin (BSA). T84 cells were incubated with a constant amount of ^125I-SEQ ID NO:7 containing various concentrations of cold competitor. Free ^125I-SEQ ID NO:7 was separated from bound tracer by rapid suction filtration. The binding reactions were carried out in 1.5 mL microfuge tubes in 0.24 mL of DMEM/20 mM Hepes pH 7.0/0.5% BSA containing: 2.5×10^5 T84 cells (0.25 mg protein), 200,000 cpm ^125I-SEQ ID NO:7 (41 fmol, 170 pM), and 0.01 to 1,000 nM competitor. Binding assays at pH 5.0 were done in DMEM/20 mM 2-(N-morpholino) ethanesulfonic acid (Mes), pH 5.0. Binding assays in pH 8.0 were done in DMEM/20 mM Hepes/50 mM sodium bicarbonate pH 8.0. One sample contained no competitor (B0) and another contained no cells. After incubation at 37° C. for 1 h, the reaction mixtures were applied to Whatman GF/B glass-fiber filters by suction filtration. The filters were then rinsed with 10 mL ice-cold PBS buffer, inserted into plastic tubes, and added to 2 mL scintillation fluid. Radioactivity was measured in a LS 6500 liquid scintillation counter (Beckman-Coulter). The percent bound in each sample is calculated by the equation:
# % B/B0=(sample cpm−no cells cpm)×100/(B0cpm−no cells cpm)
# Competitive radioligand-binding curves were generated using the Graphpad PRISM™ computer program. […]
# [2] = system: carboxypeptidase A; test: in vitro proteolytic stability: carboxypeptidase A
# Experimental: The stability of SEQ ID NO:3 in the presence of several mammalian digestive enzymes was determined. SEQ ID NO:3 was exposed to a variety of in vitro conditions including digestive enzymes and low ph environments designed to simulate gastric fluid. SEQ ID NO:3 was incubated with chymotrypsin, trypsin, pepsin, aminopeptidase, carboxypeptidase A, and simulated gastric fluid (sgf) at ph 1.0. Samples were collected at 0, 3, and 24 h for all conditions except pepsin digestion and the SGF. For the latter two conditions, samples were obtained at 0, 1, and 3 h. Negative control samples were prepared for initial and final time points. A separate, positive activity control was run in parallel to SEQ ID NO:3. All samples were analyzed by LC/MS
# Five (5) μL of a 40 μg/mL carboxypeptidase inhibitor (carboxypeptidase inhibitor from potato tuber (Sigma-Aldrich, C0279) stock was added to each control sample (0 and 24 h), for a final concentration of 0.4 μg/mL. All control and test (0, 3 and 24 h) samples were incubated at 37° C. for 5 min. Twenty (20) μL of a 0.01 mg/mL carboxypeptidase A (Carboxypeptidase A from human pancreas; Sigma-Aldrich, C5358) stock was added to each sample. The samples were returned to the 37° C. water bath. The reaction was quenched with 5 μL of a 40 μg/mL carboxypeptidase inhibitor at the proper time point. No extra carboxypeptidase inhibitor was added to the control samples since there was already inhibitor present. Samples were subsequently flash frozen in liquid nitrogen, and stored at −80° C. until analysis. Upon analysis, samples were thawed and transferred to a 1 mL 96-well deep microtiter plate. […] These standards were used to generate a standard curve for quantification of samples. When necessary, the standard curves were also used to calculate the concentration of the corresponding digestion product. Ten (10) μL injections were made of each sample and standard. […] For the SEQ.
# To further study the SEQ ID NO:3 carboxypeptidase A digestion product, samples of 0.01 mg/mL SEQ ID NO:3 were prepared in the carboxypeptidase A reaction buffer at a total volume of 500 μL in 2 mL eppendorf tubes. Triplicate samples were prepared for the following time points: 0, 15, 30, 60, 120, 180 and 240 min. The samples were incubated at 37° C. for 5 min. Twenty (20) μL of a 0.01 mg/mL carboxypeptidase A stock were added to each sample and returned to the 37° C. water bath. The reactions were quenched with 5 μL of a 40 μg/mL carboxypeptidase inhibitor at the proper time points. Samples were subsequently flash frozen in liquid nitrogen, and stored at −80° C. until analysis. Upon analysis, samples were thawed and transferred to a 1 mL 96-well plate. Standards of SEQ ID NO:3 were prepared in carboxypeptidase A reaction buffer at 0.625, 1.25, 2.50, 5.00, and 10.00 μg/mL concentrations. These standards were used to generate a standard curve for quantification of samples. When necessary, the standard curves were also used to calculate the concentration of the corresponding digestion product. Ten (10) μL injections were made of each sample and standard. If the formation of a digestion product was evident, then a spectral analysis was used to determine the mass of the digestion product, and predict its possible identity.
Structure (SMILES),pKi [1],"pKi ([1]; read-out: Ki2 (low affinity site), pH 7.0, T84 cells, tracer 125I-SEQ ID NO:7)",average concentration of SEQ ID NO:6 (digestion product of SEQ ID NO:3) ([2]; T0),"effect of pH on binding to the high affinity site, Ki1 ([1]; pH 5, 7 and 8)","Cleavage of SEQ ID NO: 3 by proteolytic substance ([2]; Carboxypetidase A, 37° C., up to 24 h)","SEQ ID NO:3 average concentration ([2]; T0, carboxypeptidase A time course)",SEQ ID NO:3 average concentration ([2]; T240 (240 min)),average calculated SEQ ID NO:3 product concentration ([2]; T24 h samples),"SEQ ID NO:3 calculated concentration ([2]; all samples (0, 3, 24 h and controls))",calculated concentration of the SEQ ID NO:3 products ([2]; time 0 control (with inhibitor)),calculated concentration of the SEQ ID NO:3 products ([2]; time 0 samples)
"C[C@@H]1NC(=O)[C@@H]2CCCN2C(=O)[C@H](CC(N)=O)NC(=O)[C@@H]2CSSC[C@H](N)C(=O)N[C@H]3CSSC[C@H](NC1=O)C(=O)N[C@@H]([C@@H](C)O)C(=O)NCC(=O)N[C@H](C(=O)O)CSSC[C@H](NC(=O)[C@H](Cc1ccc(O)cc1)NC(=O)[C@H](CCC(=O)O)NC3=O)C(=O)N2 [SEQ ID NO:6] (H-CCEYCCNPACTGC-OH; disulfide 1-6, 2-10, 5-13)",8.80,6.35,108 (+/−2) nM,–,–,–,–,–,–,–,–
"C[C@@H]1NC(=O)[C@@H]2CCCN2C(=O)[C@H](CC(N)=O)NC(=O)[C@@H]2CSSC[C@H](N)C(=O)N[C@H]3CSSC[C@H](NC1=O)C(=O)N[C@@H]([C@@H](C)O)C(=O)NCC(=O)N[C@H](C(=O)N[C@@H](Cc1ccc(O)cc1)C(=O)O)CSSC[C@H](NC(=O)[C@H](Cc1ccc(O)cc1)NC(=O)[C@H](CCC(=O)O)NC3=O)C(=O)N2 [SEQ ID NO:3] (H-CCEYCCNPACTGCY-OH; disulfide 1-6, 2-10, 5-13; N-terminus and C-terminus assumed)",–,–,–,not affected by pH,Yes,5115 (+/−121) nM,4438 (+/−188) nM,1.3 (+/−0.04) μg/mL,8.4 (+/−1.2) μg/mL,0.8 (+/−0.02) μg/mL,0.8 (+/−0.01) μg/mL
